This passage reports IC50 results from ChEMBL document CHEMBL5241122, “A concise review on marine bromopyrrole alkaloids as anticancer agents” (Bioorg Med Chem Lett, 2023).

What all share (assay type): functional, cell-based
One test relates to MDA-MB-231. Briefly: Antiproliferative activity against human MDA-MB-231 cells incubated for 72 hrs by SRB assay. The note with it: MDA-MB-231, 72 h. On the technique in general: The SRB assay estimates cell density from bound dye.
Another test concerns HCT-116. Briefly: Antiproliferative activity against human HCT-116 cells incubated for 72 hrs by SRB assay. The note with it: HCT-116, 72 h.
For another test, the system named is SNU-638. Briefly: Antiproliferative activity against human SNU-638 cells incubated for 72 hrs by SRB assay. The note with it: SNU-638, 72 h.
A further test concerns A549. Briefly: Antiproliferative activity against human A549 cells incubated for 72 hrs by SRB assay. The conditions noted are these: A549, 72 h.
A further test concerns K562. Put plainly: Antiproliferative activity against human K562 cells incubated for 72 hrs by SRB assay. The conditions noted are these: K562, 72 h.
The next test relates to SK-HEP1. Put plainly: Antiproliferative activity against human SK-HEP1 cells incubated for 72 hrs by SRB assay. The note with it: SK-HEP1, 72 h.

In the case of `NC1=NC(=O)C([C@@H]2[C@@H](CNC(=O)c3cc(Br)c[nH]3)[C@H](CNC(=O)c3cc(Br)c[nH]3)[C@H]2C2NC(N)=NC2=O)N1` (stereo partly specified), the IC50 with MDA-MB-231 is 32.8 µM; with HCT-116, 9.93 µM; with SNU-638, 7.92 µM; in the test on A549, 31.3 µM; in the test on K562, 12.9 µM; in the test with SK-HEP1, 35.2 µM.

A word on the IC50: it is the concentration at which inhibition is half-maximal. High values mean a need for much substance, low ones inhibition by little substance.
